Assays:
[1] = molecular target: Calcium/calmodulin-dependent protein kinase type II subunit delta (Homo sapiens) (UniProt Q13557); assay: Inhibition of human recombinant CaMK2d at 40 nM related to control ULK1
[2] = molecular target: T1, Mitogen-activated protein kinase 12 (Homo sapiens) (UniProt P53778); assay: Inhibition of human recombinant p38gamma at 40 nM related to control ULK1
T1 sequence (whole entry): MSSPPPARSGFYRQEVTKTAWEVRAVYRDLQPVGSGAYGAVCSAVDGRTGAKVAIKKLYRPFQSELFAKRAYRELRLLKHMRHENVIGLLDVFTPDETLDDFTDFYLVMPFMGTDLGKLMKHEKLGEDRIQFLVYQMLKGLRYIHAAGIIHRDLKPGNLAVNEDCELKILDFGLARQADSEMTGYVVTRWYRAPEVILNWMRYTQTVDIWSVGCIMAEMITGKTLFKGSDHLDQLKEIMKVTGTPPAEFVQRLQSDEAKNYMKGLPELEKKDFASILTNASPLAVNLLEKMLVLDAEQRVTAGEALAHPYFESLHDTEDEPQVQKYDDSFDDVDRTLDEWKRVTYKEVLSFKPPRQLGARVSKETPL

[3] = molecular target: Death-associated protein kinase 1 (Homo sapiens) (UniProt P53355); assay: Inhibition of human recombinant DAPK1 at 40 nM related to control ULK1
Death-associated protein kinase 1 (Homo sapiens), sequence (P53355 whole entry, looked up): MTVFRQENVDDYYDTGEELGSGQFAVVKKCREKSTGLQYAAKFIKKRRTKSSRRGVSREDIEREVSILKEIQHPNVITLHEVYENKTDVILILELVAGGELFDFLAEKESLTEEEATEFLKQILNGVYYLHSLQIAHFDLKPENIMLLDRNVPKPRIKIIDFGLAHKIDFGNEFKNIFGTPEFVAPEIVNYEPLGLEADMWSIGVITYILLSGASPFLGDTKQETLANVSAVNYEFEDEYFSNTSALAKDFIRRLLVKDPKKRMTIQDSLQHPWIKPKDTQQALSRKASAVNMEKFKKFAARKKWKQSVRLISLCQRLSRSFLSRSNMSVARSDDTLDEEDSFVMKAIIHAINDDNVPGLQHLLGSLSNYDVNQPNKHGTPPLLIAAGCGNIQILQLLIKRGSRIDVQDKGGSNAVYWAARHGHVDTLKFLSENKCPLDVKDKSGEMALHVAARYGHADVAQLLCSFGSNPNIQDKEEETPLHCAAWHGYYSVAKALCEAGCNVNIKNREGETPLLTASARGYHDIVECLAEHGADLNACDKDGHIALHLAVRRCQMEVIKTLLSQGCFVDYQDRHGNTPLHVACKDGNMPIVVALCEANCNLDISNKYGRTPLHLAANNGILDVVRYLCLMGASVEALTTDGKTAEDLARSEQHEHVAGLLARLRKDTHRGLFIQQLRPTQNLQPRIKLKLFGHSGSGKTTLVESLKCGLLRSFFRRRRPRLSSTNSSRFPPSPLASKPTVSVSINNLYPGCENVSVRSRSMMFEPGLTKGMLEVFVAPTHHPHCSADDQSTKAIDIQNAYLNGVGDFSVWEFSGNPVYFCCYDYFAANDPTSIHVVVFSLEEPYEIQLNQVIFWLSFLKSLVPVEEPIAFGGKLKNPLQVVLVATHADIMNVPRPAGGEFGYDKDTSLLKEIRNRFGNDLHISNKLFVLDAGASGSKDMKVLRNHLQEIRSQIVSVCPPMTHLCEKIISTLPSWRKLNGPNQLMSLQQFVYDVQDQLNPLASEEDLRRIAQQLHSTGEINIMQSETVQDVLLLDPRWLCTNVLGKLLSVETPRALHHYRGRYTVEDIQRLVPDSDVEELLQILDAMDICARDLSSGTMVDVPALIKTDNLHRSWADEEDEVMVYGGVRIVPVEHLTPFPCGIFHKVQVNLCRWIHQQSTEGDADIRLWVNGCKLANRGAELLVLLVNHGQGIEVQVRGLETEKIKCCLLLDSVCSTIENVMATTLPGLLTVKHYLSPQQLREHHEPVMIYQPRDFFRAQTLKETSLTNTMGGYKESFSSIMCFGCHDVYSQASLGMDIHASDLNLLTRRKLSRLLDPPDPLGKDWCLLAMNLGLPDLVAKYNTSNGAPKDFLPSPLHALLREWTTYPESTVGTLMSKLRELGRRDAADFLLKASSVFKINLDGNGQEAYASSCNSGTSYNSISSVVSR

[4] = molecular target: Serine/threonine-protein kinase PAK 1 (Homo sapiens) (UniProt Q13153); assay: Inhibition of human recombinant PAK1 at 15 nM related to control ULK1
Serine/threonine-protein kinase PAK 1 (Homo sapiens), sequence (Q13153 whole entry, looked up): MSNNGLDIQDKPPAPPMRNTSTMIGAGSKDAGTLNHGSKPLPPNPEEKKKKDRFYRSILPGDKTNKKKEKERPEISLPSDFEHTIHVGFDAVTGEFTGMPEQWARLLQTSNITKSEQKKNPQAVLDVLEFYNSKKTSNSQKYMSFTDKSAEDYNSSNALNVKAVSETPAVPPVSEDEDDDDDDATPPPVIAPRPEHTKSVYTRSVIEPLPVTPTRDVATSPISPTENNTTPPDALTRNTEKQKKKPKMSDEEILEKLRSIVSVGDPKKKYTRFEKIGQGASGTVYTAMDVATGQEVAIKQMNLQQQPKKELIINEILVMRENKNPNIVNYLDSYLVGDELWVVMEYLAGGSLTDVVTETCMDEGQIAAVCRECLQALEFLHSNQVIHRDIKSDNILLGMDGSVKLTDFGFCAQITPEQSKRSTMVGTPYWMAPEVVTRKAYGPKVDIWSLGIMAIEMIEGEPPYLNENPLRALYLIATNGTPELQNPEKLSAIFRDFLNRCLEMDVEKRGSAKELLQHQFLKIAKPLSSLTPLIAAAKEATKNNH

[5] = molecular target: Mitogen-activated protein kinase kinase kinase 10 (Homo sapiens) (UniProt Q02779); assay: Inhibition of human recombinant MLK2 at 15 nM related to control ULK1
Mitogen-activated protein kinase kinase kinase 10 (Homo sapiens), sequence (Q02779 whole entry, looked up): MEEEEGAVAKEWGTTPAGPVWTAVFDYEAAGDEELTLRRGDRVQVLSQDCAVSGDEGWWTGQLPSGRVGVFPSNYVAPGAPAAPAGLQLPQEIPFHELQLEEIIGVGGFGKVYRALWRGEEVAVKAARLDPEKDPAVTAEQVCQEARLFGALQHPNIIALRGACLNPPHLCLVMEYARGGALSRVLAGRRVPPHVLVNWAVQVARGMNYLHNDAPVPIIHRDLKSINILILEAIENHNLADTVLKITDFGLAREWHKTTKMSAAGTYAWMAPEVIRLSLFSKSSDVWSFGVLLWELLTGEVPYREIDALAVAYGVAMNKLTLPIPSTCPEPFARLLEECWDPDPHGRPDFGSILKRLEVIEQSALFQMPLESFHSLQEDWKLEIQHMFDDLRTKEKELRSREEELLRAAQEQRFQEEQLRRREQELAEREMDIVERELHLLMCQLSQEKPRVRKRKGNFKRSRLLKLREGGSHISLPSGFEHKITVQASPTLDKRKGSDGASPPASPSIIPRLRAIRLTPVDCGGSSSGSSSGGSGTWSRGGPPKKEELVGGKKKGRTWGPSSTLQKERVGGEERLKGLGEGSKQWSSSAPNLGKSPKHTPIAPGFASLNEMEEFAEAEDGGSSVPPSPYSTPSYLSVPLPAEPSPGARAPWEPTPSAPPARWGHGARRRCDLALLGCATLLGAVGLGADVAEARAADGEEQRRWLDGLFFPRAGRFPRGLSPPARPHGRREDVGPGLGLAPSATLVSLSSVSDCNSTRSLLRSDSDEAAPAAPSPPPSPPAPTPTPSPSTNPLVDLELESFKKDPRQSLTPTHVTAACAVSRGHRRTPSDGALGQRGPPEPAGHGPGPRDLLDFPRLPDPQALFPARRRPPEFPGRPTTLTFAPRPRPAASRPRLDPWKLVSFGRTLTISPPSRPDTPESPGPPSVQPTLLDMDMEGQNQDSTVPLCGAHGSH

[6] = molecular target: T2, Serine/threonine-protein kinase Nek1 (Homo sapiens) (UniProt Q96PY6); assay: Inhibition of human recombinant NEK1 at 15 nM in presence of ATP by radiometric assay relative to control
T2 sequence (whole entry): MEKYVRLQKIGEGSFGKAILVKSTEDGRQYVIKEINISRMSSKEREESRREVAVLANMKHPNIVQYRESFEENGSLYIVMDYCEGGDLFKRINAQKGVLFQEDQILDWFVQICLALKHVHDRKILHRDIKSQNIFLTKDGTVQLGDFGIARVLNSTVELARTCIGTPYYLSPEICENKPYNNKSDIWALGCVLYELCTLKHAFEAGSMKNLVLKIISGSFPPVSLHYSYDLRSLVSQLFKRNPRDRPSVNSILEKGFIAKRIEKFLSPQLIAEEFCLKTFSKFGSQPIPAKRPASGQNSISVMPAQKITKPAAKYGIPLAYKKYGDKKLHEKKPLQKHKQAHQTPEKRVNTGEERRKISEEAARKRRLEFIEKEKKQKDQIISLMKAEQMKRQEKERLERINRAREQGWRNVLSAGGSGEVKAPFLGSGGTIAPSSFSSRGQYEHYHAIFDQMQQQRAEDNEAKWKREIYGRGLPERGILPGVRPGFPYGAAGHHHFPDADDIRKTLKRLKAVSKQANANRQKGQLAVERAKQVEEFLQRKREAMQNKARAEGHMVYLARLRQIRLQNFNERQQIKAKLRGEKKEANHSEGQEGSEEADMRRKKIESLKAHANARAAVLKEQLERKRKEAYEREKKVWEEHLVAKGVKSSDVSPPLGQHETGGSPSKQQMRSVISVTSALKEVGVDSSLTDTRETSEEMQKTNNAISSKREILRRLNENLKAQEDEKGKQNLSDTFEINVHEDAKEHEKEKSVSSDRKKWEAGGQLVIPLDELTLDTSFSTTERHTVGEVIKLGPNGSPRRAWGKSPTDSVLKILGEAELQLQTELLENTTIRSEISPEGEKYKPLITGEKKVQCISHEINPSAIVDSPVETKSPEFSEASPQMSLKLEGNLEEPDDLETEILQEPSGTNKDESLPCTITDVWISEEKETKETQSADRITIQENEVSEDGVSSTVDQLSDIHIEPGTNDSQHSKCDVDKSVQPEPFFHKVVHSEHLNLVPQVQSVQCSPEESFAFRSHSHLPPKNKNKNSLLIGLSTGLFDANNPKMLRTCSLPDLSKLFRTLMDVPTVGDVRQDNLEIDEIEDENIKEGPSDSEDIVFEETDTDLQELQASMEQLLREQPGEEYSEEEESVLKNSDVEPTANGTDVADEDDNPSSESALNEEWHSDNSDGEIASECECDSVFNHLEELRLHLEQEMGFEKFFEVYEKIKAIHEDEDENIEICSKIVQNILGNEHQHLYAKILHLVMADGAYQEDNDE

[7] = molecular target: G protein-coupled receptor kinase 6 (Homo sapiens) (UniProt P43250); assay: Inhibition of human recombinant GPRK6 at 15 nM in presence of ATP by radiometric assay relative to control
G protein-coupled receptor kinase 6 (Homo sapiens), sequence (P43250 whole entry, looked up): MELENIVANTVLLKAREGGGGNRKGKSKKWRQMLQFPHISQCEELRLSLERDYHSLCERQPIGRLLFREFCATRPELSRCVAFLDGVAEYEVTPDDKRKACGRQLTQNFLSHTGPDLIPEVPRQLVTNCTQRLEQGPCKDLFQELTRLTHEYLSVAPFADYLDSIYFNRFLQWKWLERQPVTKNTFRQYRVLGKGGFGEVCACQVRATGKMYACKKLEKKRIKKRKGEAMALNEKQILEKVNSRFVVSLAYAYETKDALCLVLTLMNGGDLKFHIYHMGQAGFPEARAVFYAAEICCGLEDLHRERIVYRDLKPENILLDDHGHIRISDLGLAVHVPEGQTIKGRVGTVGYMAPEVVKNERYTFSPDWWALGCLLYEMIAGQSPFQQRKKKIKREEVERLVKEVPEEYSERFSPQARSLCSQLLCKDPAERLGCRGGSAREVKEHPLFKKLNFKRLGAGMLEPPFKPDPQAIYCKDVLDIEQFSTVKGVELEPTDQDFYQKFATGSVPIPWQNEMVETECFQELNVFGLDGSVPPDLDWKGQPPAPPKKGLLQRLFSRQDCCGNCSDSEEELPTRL

[8] = molecular target: T3, Tyrosine-protein kinase ITK/TSK (Homo sapiens) (UniProt Q08881); assay: Inhibition of human recombinant ITK at 500 nM related to control ULK1
T3 sequence (whole entry): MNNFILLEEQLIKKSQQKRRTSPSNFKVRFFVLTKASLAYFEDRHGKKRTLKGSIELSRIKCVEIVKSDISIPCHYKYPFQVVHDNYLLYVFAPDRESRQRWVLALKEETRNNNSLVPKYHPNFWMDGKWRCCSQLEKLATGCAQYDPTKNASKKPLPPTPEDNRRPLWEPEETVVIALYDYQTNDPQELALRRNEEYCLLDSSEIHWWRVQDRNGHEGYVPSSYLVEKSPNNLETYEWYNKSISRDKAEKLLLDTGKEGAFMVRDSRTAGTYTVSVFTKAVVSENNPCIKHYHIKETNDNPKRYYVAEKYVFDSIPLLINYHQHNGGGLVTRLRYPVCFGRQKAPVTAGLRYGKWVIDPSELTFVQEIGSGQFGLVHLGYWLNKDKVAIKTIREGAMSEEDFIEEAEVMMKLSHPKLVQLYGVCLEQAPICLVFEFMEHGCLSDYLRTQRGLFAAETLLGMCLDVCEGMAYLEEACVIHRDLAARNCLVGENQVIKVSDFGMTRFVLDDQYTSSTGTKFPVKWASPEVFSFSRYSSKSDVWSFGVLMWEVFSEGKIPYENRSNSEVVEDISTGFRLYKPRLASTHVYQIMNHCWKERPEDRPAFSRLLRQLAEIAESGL

Calcium/calmodulin-dependent protein kinase type II subunit delta (Homo sapiens), sequence (Q13557 whole entry): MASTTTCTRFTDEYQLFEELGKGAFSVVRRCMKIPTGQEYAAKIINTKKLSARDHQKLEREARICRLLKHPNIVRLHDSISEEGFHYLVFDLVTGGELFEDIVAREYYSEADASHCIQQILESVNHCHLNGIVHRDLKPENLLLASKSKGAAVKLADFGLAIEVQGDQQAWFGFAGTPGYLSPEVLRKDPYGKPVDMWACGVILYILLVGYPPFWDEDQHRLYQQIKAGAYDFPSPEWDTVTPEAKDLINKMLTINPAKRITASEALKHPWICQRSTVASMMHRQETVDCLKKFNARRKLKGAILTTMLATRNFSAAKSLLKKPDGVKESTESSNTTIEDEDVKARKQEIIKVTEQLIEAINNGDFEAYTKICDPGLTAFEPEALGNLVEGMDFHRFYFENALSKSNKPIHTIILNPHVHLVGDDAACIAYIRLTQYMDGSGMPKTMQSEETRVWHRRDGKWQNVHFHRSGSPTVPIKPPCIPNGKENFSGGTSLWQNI

`O=C(N[C@@H](C1CC1)C(F)(F)F)c1cc(-c2cnn3cc(-c4ccc(F)cc4)cnc23)cs1` showed a fold change (FC) [1] of 0.01, a fold change (FC) [2] of 0 and a fold change (FC) [3] of 0.

`CC(C)[C@H](NC(=O)c1cc(-c2cnn3cc(-c4ccc(OCCN5CCCCC5)cc4)cnc23)cs1)C(F)(F)F` was tested, and the fold change (FC) [4] was 0, the fold change (FC) [5] was 0.14 and the inhibition [6] was 3%. It also gave an inhibition [7] of 0%.

`CNC(=O)c1ccccc1Oc1nc(Nc2cc(OC)c(OC)c(OC)c2)ncc1Br` was tested, and the fold change (FC) [8] was 0.01.
